Assay: in vitro metabolic stability in pooled mouse liver microsomes
Format: in vitro ADME
Details: for half-life: t1/2, mouse liver microsomes

Row | half-life [min] | microsomal CLint [µL/min/mg] | SMILES
1 | 348 |  | O=C(Nc1ccccc1Cl)c1cnc2ccc(C3CCNCC3)cn12.O=C(O)C(=O)O [Compound 32]
2 | 27 | 51 ± 2.1 | O=C(Nc1ccccc1Cl)c1cnn2ccc(-c3ccccc3)cc12 [Compound 54]
3 | 8.3 | 167 ± 4.2 | O=C(Nc1ccccc1Cl)c1cnn2ccc(N3CCCCC3)cc12 [Compound 58]
4 | 3.8 | 361 ± 64 | O=C(Nc1ccccc1Cl)c1cnc2ccccn12 [Compound 69]
5 | 53 | 26 ± 0.8 | O=C(Nc1ccccc1Cl)c1cnc2ccc(-c3ccccc3)cn12 [Compound 70]
6 | 20 | 71 ± 2 | O=C(Nc1ccccc1Cl)c1cnc2ccc(N3CCCCC3)cn12 [Compound 71]

— PMC2785710 (Bioorganic & medicinal chemistry letters, 2009)
